Read-outs that look alike come from different tables or passages of the source.
Columns and labels:
[1] = Solubility of C66 in solvents (Table 1); assay type: physicochemical
[2] = Permeability of C66 (previous studies); assay type: in vitro ADME
[3] = Saturated concentration of C66 in SDS and Tween 80 solutions; assay type: physicochemical
From the text: The inventors also investigated the solubility of C66 in sodium dodecyl sulfate (SDS) and Tween 80 (T80). According to the recommended usage of surfactants specified in Handbook of Pharmaceutical Excipients, and recommendations from the National Medical Products Administration of China and the U.S. Food and Drug Administration (FDA), a proportion of surfactants in the solution is 1%-3%.

[4] = Solubility of C66 in buffer solutions of different pH (37° C. shaker 24 hours, HPLC); assay type: physicochemical; settings: buffer solutions pH 1.0, 1.2, 2.0, 4.0, 5.0, 6.0, 6.8, 7.4
Experimental: In addition, the inventors also prepared a series of buffer solutions (pH 1.0, pH 1.2, pH 2.0, pH 4.0, pH 5.0, pH 6.0, pH 6.8, and pH 7.4) according to the recommended conditions of the Pharmacopoeia, to investigate the solubility of C66 under different pH conditions. Excess C66 powder was added to each of the solutions to obtain a mixture, the mixture was shaken in a 37° C. shaker for 24 hours. The C66 concentration was then measured using high-performance liquid chromatography.

[5] = Cumulative dissolution of pulverized C66 substance in surfactant aqueous solutions; assay type: physicochemical; settings: 60 min
Experimental: None of them reached the quality control requirement that the cumulative dissolution rate could be equal to or greater than 85% in 30 min-60 min.

[6] = Related substances after acceleration storage; assay type: physicochemical; settings: C66 substance Batch C66-S-ZS-03-09, comparison
Experimental: (§1) Acceleration test conditions: aluminum foil bag packaging, sealed, 40±2° C., 75%±5% RH, sample placement;
(§2) Samples: Solid dispersions obtained in Examples 1, 2, and 3.

[7] = Content determination after acceleration storage; assay type: physicochemical; settings: C66 substance Batch C66-S-ZS-03-09, comparison
Experimental: as §1, §2

[8] = male, Beagle, dog, in vivo
Experimental: (§3) 6 male Beagle dogs (with a weight of 8.00-8.62 kg per dog) that passed the quarantine were selected and divided into 2 groups by weight according to a completely random method, that is, oral administration group, and intravenous injection group, with 3 dogs in each group, and single gavage administration were given. The dogs were subjected to fasting but not water deprivation 12 hours before administration, and were provided with food 4 hours after administration, with free access to water. For the oral administration group, 1% sodium carboxymethyl cellulose (CMC-Na) was mixed with C66 substance to prepare a 0.6 mg/mL suspension for gavage. For the intravenous injection group, a required amount of C66 substance was weighed and dissolved in a solution containing 5% DMSO+10% polyethylene glycol-15 hydroxystearate+85% (20% 2-hydroxypropyl-β-cyclodextrin) to prepare a 1 mg/mL clear solution. Blood samples were collected at different time points after administration, and a concentration of C66 in the blood samples were detected by a liquid chromatograph mass spectrometer to obtain a drug concentration-time curve.
(§4) Plasma samples were analyzed using an AB Sciex 5500 (LC-MS/MS) with an electrospray ionization source (ESI), and monitored with a multiple reaction monitoring (MRM) scanning method in a positive ion mode. A gradient elution was performed with 0.1% formic acid aqueous solution-acetonitrile as a mobile phase. Unknown samples were subjected to protein precipitation using methanol before injection, with a flow rate of 0.3 mL/min. Chromatographic column: Kinetex® 1.7 μm, XB-C18 2.1*100 mm. Guard column: Phenomenex UHPLC C18 2.1 mm. A linear range of C66 was 1.000-288.0 ng/ml, with a lower limit of quantitation of 1.000 ng/mL.
(§5) The dogs were subjected to fasting but not water deprivation 12 hours before administration, and were provided with food 4 hours after administration, with free access to water.
(§6) For the oral administration groups, the blood collection time points were before administration and 15 min, 30 min, 45 min, 1 hour, 2 hours, 3 hours, 4 hours, 6 hours, 8 hours, 10 hours and 24 hours after administration, and 0.5-1.0 mL of blood were collected from a small saphenous vein outside a hind limb or a cephalic vein inside a forelimb, and placed into a heparin sodium anticoagulation tube. For the Intravenous injection group, the blood collection time points were before administration and 5 min, 15 min, 30 min, 45 min, 1 hour, 2 hours, 3 hours, 4 hours, 8 hours, 10 hours and 24 hours after administration, and 0.5-1.0 mL of blood were collected from a small saphenous vein outside a hind limb or a cephalic vein inside a forelimb, and placed into a heparin sodium anticoagulation tube. Main pharmacokinetic parameters such as AUC0-t, AUC0-∞, and t1/2 were calculated using a Phoenix WinNonlin 8.0 software.
(§7) Oral administration group 1: A required amount of C66 substance was weighed, and an appropriate amount of 1% CMC-Na was added to prepare a 0.6 mg/mL suspension.
(§8) Oral administration group 2: A required amount of C66 solid dispersion was weighed, and an appropriate amount of 1% CMC-Na was added to prepare a 0.6 mg/mL suspension.
(§9) Intravenous injection group: A required amount of C66 substance was weighed and dissolved in a solution containing 5% DMSO+10% polyethylene glycol-15 hydroxystearate+85% (20% 2-hydroxypropyl-β-cyclodextrin) to prepare a 1 mg/mL clear solution.

[9] = in vivo; settings: male, Beagle, dog
Experimental: as §3, §4, §5, §6, §7, §8, §9

O=C1/C(=C/c2ccccc2C(F)(F)F)CCC/C1=C\c1ccccc1C(F)(F)F [Example C66]
Solubility of C66 ([1]; Ethanol (95%)): Slightly soluble | Solubility of C66 ([1]; Hydrochloric acid solution with a pH of 1.0): Almost insoluble or insoluble | Solubility of C66 ([1]; Phosphate buffer with a pH of 6.8): Almost insoluble or insoluble | Solubility of C66 ([1]; Purified water): Almost insoluble or insoluble | water solubility ([1]; previous studies): poor | permeability [2]: good | Saturated concentration of C66 ([3]; 1% SDS solution): 5.158 µg/mL | Saturated concentration of C66 ([3]; 1% Tween 80 solution): 1.410 µg/mL | Saturated concentration of C66 ([3]; 2% SDS solution): 9.046 µg/mL | Saturated concentration of C66 ([3]; 2% Tween 80 solution): 3.385 µg/mL | Saturated concentration of C66 ([3]; 3% SDS solution): 22.484 µg/mL | Saturated concentration of C66 ([3]; 3% Tween 80 solution): 15.231 µg/mL | solubility under different pH conditions [4]: not dissolved | cumulative dissolution rate ([5]; 3% sodium dodecyl sulfate aqueous solution, particle size D0.9<15 μm): 25.3% | maximum cumulative dissolution rate ([5]; different concentrations of CTAB aqueous solution): 18.9% | cumulative dissolution rate ([5]; different concentrations of triton X-100 aqueous solution): 26.3% | Isomer [6]: 0.038% | Other largest unknown impurities [6]: 0.025% | Process impurities 1 [6]: 0.188% | Process impurities 2 [6]: 0.385% | Content [7]: 98.5% | Absolute bioavailability (AUC0-t) [8]: 7.16% | ratio of AUC0-t to AUC0-∞ ([8]; iv, 1 mg/kg): 99% | Relative bioavailability (AUC0-t) ([8]; po, 3 mg/kg): 15.02% | ratio of AUC0-t to AUC0-∞ ([8]; po, 3 mg/kg): 88% | AUC(0-t) ([9]; iv, 1 mg/kg, AUC0-t): 162 ng·h/mL | AUC(0-t) ([9]; iv, 1 mg/kg, AUC0-t Mean): 148 ng·h/mL | AUC(0-inf) ([9]; iv, 1 mg/kg, AUC0-∞): 163 ng·h/mL | AUC(0-inf) ([9]; iv, 1 mg/kg, AUC0-∞ Mean): 149 ng·h/mL | Cmax ([9]; iv, 1 mg/kg, Cmax): 334 ng/mL | Cmax ([9]; iv, 1 mg/kg, Cmax Mean): 348 ng/mL | MRT last ([9]; iv, 1 mg/kg, MRTlast): 41 min | MRT last ([9]; iv, 1 mg/kg, MRTlast Mean): 35.9 min | Tmax ([9]; iv, 1 mg/kg, Tmax): 4.98 min | Tmax ([9]; iv, 1 mg/kg, Tmax Mean): 4.98 min | half-life ([9]; iv, 1 mg/kg, half-life (t1/2)): ~30 min | half-life ([9]; iv, 1 mg/kg, t1/2): 33.7 min | half-life ([9]; iv, 1 mg/kg, t1/2 Mean): 30.4 min | AUC(0-t) ([9]; po, 3 mg/kg, AUC0-t Mean): 31.8 ng·h/mL | AUC(0-inf) ([9]; po, 3 mg/kg, AUC0-∞ Mean): 35.8 ng·h/mL | Cmax ([9]; po, 3 mg/kg, Cmax Mean): 15.8 ng/mL | MRT last ([9]; po, 3 mg/kg, MRTlast): 113 min | MRT last ([9]; po, 3 mg/kg, MRTlast Mean): 103 min | Tmax ([9]; po, 3 mg/kg, Tmax): 120 min | Tmax ([9]; po, 3 mg/kg, Tmax Mean): 90 min | half-life ([9]; po, 3 mg/kg, half-life (t1/2)): ~60 min | half-life ([9]; po, 3 mg/kg, t1/2 Mean): 53.5 min | Tmax ([9]; po, 3 mg/kg, time to reach peak concentration (Tmax)): ~60 min

Reference: patent US20260151354A1, “SOLID DISPERSION OF CURCUMIN DERIVATIVE METHOD FOR PREPARING SAME, AND USE THEREOF” (WENZHOU MEDICAL UNIVERSITY, priority 2022, published 2026)
